Measurements from ChEMBL document CHEMBL5143636, “Design, synthesis and structure-activity relationship studies of pyrido[2,3-d]pyrimidin-7-ones as potent Janus Kinase 3 (JAK3) covalent inhibitors” (Bioorg Med Chem Lett, 2022).
Each block holds one compound with its values, some of them ahead of it. The source made the active and inactive calls. The calls are words filed in the database; no cut-off is given here.

Columns and labels:
[1] = target: T1, Tyrosine-protein kinase JAK3 (Homo sapiens, UniProt P52333)
T1 sequence (P52333 whole entry): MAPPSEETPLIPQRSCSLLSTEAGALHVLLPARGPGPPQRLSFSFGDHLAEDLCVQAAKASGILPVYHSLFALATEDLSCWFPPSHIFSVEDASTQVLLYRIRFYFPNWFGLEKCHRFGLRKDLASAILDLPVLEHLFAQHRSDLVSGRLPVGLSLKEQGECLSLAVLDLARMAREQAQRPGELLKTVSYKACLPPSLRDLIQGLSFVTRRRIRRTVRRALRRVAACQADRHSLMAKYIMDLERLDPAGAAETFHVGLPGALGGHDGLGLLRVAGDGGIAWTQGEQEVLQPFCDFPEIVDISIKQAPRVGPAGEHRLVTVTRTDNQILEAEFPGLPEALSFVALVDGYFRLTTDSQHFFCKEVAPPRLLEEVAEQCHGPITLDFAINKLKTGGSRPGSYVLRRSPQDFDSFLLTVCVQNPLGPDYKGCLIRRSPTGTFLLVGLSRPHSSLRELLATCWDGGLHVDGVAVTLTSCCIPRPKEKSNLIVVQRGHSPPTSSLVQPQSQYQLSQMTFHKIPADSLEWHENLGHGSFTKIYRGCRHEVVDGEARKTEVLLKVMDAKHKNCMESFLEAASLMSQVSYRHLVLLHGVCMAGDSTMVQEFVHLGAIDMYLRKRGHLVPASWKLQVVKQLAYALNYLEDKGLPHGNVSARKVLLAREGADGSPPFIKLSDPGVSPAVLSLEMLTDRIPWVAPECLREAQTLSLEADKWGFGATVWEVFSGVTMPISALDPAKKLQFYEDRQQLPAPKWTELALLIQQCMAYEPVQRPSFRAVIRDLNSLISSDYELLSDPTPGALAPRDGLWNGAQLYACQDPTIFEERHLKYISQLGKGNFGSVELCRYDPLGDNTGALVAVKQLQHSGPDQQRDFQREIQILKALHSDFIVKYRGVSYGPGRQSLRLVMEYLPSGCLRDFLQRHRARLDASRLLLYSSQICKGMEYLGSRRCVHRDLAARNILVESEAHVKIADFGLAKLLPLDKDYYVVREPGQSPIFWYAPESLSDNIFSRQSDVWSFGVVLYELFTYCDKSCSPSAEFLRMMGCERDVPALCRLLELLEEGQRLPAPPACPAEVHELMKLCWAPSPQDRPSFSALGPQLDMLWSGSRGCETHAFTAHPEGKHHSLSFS
Description: Covalent inhibition of recombinant recombinant human GST-tagged JAK3(781 to 1124 residues) expressed in baculovirus expression system incubated for 1 hr in the presence of ATP by FRET based Z'-LYTE assay

U-937 [2] = assay: Antiproliferative activity against human U-937 cells harbouring JAK3 M511 mutation assessed as reduction in cell viability incubated for 72 hrs by CCK-8 assay; format: functional, cell-based; conditions: U-937, 72 h
[3] = target: T2, Signal transducer and activator of transcription 5A (Homo sapiens) (UniProt P42229); assay: Inhibition STAT5 phosphorylation in human U-937 cells measured after 12 hrs by Western blotting analysis; format: cell-based; conditions: dose 12.5-200 nM, DDE = dose-dependent effect
T2 sequence (whole entry): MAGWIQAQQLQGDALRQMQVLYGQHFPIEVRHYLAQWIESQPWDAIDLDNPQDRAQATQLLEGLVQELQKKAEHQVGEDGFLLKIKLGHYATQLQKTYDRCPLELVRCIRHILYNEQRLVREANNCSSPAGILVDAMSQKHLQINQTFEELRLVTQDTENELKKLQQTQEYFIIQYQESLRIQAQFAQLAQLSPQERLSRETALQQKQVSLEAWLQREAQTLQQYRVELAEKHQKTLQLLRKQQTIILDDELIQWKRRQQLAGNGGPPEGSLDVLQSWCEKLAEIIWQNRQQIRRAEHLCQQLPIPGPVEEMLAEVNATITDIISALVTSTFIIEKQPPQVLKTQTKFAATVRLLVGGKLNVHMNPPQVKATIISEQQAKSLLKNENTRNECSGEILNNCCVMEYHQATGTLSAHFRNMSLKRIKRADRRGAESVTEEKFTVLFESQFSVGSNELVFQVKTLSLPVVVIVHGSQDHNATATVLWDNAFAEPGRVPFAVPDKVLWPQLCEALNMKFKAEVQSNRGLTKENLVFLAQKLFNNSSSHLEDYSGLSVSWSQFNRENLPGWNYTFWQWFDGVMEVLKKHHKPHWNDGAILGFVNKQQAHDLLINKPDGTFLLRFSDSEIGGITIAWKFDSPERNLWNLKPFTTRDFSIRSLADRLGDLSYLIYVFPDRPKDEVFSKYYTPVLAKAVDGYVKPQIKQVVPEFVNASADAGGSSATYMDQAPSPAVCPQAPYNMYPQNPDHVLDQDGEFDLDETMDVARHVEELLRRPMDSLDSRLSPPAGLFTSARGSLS

U-937 [4] = assay: Effect on STAT5 protein level in human U-937 cells at 12.5 to 200 nM measured after 12 hrs by Western blotting analysis; format: functional, cell-based; conditions: dose 12.5-200 nM
MOLT-4 = assay: Antiproliferative activity against human MOLT-4 cells assessed as reduction in cell viability incubated for 72 hrs by CCK-8 assay; format: functional, cell-based; conditions: MOLT-4, 72 h
COLO 205 = assay: Antiproliferative activity against human COLO 205 cells assessed as reduction in cell viability incubated for 72 hrs by CCK-8 assay; format: functional, cell-based; conditions: COLO 205, 72 h
[5] = target: Tyrosine-protein kinase JAK1 (Homo sapiens, UniProt P23458); assay: Inhibition of JAK1 (unknown origin) incubated for 1 hr in the presence of ATP by FRET based Z'-LYTE assay
Tyrosine-protein kinase JAK1, sequence (P23458 whole entry): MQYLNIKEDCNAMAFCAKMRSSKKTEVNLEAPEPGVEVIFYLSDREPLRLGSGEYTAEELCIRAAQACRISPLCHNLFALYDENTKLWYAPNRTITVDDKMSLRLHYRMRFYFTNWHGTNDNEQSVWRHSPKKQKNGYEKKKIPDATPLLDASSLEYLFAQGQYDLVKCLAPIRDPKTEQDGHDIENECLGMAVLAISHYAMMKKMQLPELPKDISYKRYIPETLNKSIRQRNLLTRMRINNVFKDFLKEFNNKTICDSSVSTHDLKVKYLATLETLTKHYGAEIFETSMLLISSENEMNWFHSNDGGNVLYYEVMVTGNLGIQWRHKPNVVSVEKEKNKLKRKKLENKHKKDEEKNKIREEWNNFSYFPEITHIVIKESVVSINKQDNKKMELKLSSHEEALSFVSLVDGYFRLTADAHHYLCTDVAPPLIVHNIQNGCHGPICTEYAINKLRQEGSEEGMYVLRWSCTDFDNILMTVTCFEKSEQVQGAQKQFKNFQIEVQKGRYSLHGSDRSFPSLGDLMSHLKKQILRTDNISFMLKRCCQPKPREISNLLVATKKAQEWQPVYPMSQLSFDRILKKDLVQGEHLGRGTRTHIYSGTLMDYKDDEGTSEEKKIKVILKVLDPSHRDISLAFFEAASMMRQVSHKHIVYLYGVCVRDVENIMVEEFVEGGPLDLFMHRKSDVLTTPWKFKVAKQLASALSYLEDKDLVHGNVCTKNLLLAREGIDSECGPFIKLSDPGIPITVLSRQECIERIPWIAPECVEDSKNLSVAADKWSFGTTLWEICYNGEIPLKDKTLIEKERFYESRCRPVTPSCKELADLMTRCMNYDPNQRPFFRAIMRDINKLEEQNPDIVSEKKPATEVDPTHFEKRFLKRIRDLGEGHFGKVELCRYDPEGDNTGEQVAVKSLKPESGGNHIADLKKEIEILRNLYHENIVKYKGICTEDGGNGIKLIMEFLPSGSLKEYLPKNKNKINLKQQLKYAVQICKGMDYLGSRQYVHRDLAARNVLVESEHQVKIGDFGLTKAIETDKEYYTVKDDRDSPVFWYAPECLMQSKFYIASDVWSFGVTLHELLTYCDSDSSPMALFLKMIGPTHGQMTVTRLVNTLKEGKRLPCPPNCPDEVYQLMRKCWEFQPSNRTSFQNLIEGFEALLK

U-937 [6] = assay: Effect on JAK3 protein level in human U-937 cells at 12.5 to 200 nM measured after 12 hrs by Western blotting analysis; format: functional, cell-based; conditions: dose 12.5-200 nM
[7] = target: T3, Tyrosine-protein kinase JAK3 (Homo sapiens) (UniProt P52333); assay: Inhibition of JAK3 phosphorylation in human U-937 cells at 200 nM preincubated for 6 hrs followed by compound washout and measured upto 24 hrs by Western blotting analysis; format: cell-based
T3 sequence (whole entry): T1 sequence (P52333 whole entry)

[8] = target: T3, Tyrosine-protein kinase JAK3 (Homo sapiens); assay: Inhibition of JAK3 phosphorylation in human U-937 cells measured after 12 hrs by Western blotting analysis; format: cell-based; conditions: dose 12.5-200 nM, DDE = dose-dependent effect
MDA-MB-231 = assay: Antiproliferative activity against human MDA-MB-231 cells assessed as reduction in cell viability incubated for 72 hrs by CCK-8 assay; format: functional, cell-based; conditions: MDA-MB-231, 72 h
[9] = target: Tyrosine-protein kinase BTK (Homo sapiens, UniProt Q06187); assay: Inhibition of BTK (unknown origin) incubated for 1 hr in the presence of ATP by FRET based Z'-LYTE assay
Tyrosine-protein kinase BTK, sequence (Q06187 whole entry): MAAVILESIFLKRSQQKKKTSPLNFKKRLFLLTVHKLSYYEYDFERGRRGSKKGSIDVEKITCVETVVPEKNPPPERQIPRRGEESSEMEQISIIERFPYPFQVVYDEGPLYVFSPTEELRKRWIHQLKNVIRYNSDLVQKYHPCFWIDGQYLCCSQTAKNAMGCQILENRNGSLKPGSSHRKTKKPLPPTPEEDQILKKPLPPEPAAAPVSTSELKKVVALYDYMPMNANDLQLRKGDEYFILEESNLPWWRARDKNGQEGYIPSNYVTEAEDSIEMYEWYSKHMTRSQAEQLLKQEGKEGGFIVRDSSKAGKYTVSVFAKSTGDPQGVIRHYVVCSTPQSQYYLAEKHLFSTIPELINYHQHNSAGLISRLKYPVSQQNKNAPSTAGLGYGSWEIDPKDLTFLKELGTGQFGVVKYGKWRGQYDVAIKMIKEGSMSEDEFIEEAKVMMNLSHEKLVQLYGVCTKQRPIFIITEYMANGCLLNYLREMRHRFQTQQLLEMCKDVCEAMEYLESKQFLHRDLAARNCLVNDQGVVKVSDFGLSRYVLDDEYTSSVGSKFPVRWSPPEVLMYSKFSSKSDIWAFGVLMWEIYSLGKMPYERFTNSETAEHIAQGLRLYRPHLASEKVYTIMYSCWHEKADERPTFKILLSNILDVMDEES

[10] = target: T2, Signal transducer and activator of transcription 5A (Homo sapiens); assay: Inhibition of STAT5 phosphorylation in human U-937 cells at 200 nM preincubated for 6 hrs followed by compound washout and measured upto 24 hrs by Western blotting analysis; format: cell-based
[11] = Selectivity ratio of IC50 for inhibition of wild type EGFR (unknown origin) to IC50 for covalent inhibition of recombinant human GST-tagged JAK3 (781 to 1124 residues) expressed in baculovirus expression system
HCT-116 = assay: Antiproliferative activity against human HCT-116 cells assessed as reduction in cell viability incubated for 72 hrs by CCK-8 assay; format: functional, cell-based; conditions: HCT-116, 72 h
[12] = Selectivity ratio of IC50 for inhibition of EGFR T790M mutant (unknown origin) to IC50 for covalent inhibition of recombinant human GST-tagged JAK3 (781 to 1124 residues) expressed in baculovirus expression system
NCI-H1299 = assay: Antiproliferative activity against human NCI-H1299 cells assessed as reduction in cell viability incubated for 72 hrs by CCK-8 assay; format: functional, cell-based; conditions: NCI-H1299, 72 h
[13] = target: Epidermal growth factor receptor (Homo sapiens, UniProt P00533); assay: Inhibition of wild type EGFR (unknown origin) incubated for 1 hr in the presence of ATP by FRET based Z'-LYTE assay
Epidermal growth factor receptor (Homo sapiens, UniProt P00533), sequence (P00533 whole entry, the tested form may be a part): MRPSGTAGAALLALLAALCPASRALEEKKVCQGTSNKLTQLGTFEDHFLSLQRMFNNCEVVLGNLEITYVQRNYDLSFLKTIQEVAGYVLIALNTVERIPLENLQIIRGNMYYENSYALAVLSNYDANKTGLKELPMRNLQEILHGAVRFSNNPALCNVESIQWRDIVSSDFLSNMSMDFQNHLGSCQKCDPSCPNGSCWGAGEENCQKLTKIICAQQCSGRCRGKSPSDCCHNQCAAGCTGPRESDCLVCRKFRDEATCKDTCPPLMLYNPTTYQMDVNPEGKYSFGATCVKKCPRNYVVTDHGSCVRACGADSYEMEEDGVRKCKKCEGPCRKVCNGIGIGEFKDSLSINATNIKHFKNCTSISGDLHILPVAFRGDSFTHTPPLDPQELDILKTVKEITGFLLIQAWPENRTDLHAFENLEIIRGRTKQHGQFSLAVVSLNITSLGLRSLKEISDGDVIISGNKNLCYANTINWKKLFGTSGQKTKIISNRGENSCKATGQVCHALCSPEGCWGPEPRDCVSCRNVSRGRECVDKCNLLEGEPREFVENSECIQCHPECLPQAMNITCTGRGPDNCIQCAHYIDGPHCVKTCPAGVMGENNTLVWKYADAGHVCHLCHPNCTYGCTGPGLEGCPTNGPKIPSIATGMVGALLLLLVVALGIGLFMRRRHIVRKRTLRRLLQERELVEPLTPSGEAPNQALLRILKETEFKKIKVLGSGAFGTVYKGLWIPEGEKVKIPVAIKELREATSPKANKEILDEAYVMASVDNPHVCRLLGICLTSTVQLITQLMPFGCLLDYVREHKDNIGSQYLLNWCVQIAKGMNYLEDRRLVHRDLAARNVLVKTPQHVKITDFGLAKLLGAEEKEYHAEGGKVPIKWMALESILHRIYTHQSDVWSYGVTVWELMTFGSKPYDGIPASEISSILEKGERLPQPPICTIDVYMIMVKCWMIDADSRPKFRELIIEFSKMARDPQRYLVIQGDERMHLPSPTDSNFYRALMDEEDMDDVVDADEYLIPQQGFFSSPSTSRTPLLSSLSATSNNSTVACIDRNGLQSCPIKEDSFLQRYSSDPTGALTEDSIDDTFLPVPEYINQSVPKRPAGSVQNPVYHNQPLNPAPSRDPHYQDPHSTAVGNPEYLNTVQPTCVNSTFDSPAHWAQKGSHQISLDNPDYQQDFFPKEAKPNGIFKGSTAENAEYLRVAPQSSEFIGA

[14] = Selectivity ratio of IC50 for inhibition of BTK (unknown origin) to IC50 for covalent inhibition of recombinant human GST-tagged JAK3 (781 to 1124 residues) expressed in baculovirus expression system
Daudi = assay: Antiproliferative activity against human Daudi cells assessed as reduction in cell viability incubated for 72 hrs by CCK-8 assay; format: functional, cell-based
[15] = target: Epidermal growth factor receptor (Homo sapiens, UniProt P00533, T790M); assay: Inhibition of EGFR T790M mutant (unknown origin) incubated for 1 hr in the presence of ATP by FRET based Z'-LYTE assay
Epidermal growth factor receptor (Homo sapiens, UniProt P00533, T790M), sequence (P00533 25-1210 T790M limits assumed): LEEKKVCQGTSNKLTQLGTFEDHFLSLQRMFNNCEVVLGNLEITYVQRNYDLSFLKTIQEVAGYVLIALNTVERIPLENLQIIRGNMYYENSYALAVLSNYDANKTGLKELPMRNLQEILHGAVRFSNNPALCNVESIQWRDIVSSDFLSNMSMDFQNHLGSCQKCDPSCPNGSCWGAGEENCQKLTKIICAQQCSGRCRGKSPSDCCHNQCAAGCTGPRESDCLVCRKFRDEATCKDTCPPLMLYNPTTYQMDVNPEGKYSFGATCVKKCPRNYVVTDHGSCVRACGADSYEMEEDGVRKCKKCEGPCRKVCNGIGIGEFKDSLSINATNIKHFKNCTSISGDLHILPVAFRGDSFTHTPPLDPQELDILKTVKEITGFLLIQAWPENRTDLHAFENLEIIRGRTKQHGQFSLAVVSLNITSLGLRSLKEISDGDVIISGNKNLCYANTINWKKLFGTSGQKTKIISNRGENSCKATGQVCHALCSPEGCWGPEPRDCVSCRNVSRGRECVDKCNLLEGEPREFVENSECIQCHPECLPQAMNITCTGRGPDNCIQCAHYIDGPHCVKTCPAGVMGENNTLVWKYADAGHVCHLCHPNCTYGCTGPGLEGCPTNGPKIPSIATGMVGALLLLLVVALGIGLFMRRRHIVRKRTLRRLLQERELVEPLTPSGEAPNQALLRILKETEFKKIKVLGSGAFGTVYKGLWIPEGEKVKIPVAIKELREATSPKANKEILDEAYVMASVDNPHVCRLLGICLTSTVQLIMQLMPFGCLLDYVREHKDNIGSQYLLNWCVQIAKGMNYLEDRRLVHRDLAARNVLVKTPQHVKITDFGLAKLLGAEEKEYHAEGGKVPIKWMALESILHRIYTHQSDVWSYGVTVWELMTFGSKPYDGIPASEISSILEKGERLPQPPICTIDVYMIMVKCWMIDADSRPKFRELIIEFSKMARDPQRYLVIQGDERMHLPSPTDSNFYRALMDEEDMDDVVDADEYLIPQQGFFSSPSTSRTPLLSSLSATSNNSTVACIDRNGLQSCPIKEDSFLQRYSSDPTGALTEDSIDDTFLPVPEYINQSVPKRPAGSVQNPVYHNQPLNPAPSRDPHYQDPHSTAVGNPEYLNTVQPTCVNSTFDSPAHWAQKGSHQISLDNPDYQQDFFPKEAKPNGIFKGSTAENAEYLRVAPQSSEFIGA

[16] = target: Non-receptor tyrosine-protein kinase TYK2 (Homo sapiens, UniProt P29597); assay: Inhibition of TYK2 (unknown origin) incubated for 1 hr in the presence of ATP by FRET based Z'-LYTE assay
Jurkat = assay: Antiproliferative activity against human Jurkat cells assessed as reduction in cell viability incubated for 72 hrs by CCK-8 assay; format: functional, cell-based
OCI-Ly3 = assay: Antiproliferative activity against human OCILY3 cells assessed as reduction in cell viability incubated for 72 hrs by CCK-8 assay; format: functional, cell-based; conditions: OCI-Ly3, 72 h
[17] = target: Tyrosine-protein kinase JAK2 (Homo sapiens, UniProt O60674); assay: Inhibition of JAK2 (unknown origin) incubated for 1 hr in the presence of ATP by FRET based Z'-LYTE assay
[18] = target: T1, Tyrosine-protein kinase JAK3; assay: Inhibition of JAK3 (unknown origin) incubated for 1 hr in the presence of ATP by FRET based Z'-LYTE assay

SMILES: CCC(=O)Nc1cccc(Cn2c(=O)ccc3cnc(Nc4ccccc4OC)nc32)c1
- IC50 [1]: > 10 µM

SMILES: C=CC(=O)N1C[C@H](Nc2ncnc3[nH]ccc23)CC[C@@H]1C [RITLECITINIB]
- IC50 (U-937 [2]): 0.04 µM

SMILES: C=CC(=O)Nc1cccc(Cn2c(=O)ccc3cnc(Nc4ccc(N5CCN(C)CC5)cc4OC(C)C)nc32)c1
- IC50 [1]: 1.3 µM

SMILES: C=CC(=O)Nc1cccc(Cn2c(=O)ccc3cnc(Nc4ccc(N5CCN(C)CC5)cc4OCC)nc32)c1
- IC50 [1]: 0.0098 µM
- IC50 (U-937 [2]): 1.81 µM

SMILES: C=CC(=O)Nc1cccc(Cn2c(=O)cc(C)c3cnc(Nc4ccc(N5CCN(C)CC5)cc4OC)nc32)c1
- IC50 [1]: 0.0182 µM

SMILES: C=CC(=O)Nc1cccc(Cn2c(=O)ccc3cnc(Nc4ccc(N5CCN(C)CC5)cc4)nc32)c1
- inhibition [3]: Dde
- Activity (U-937 [4]): Active
- IC50 (MOLT-4): 2.25 µM
- IC50 [1]: 0.002 µM
- IC50 (U-937 [2]): 0.05 µM
- IC50 (COLO 205): 3.84 µM
- IC50 [5]: 2.43 µM
- Activity (U-937 [6]): Active
- inhibition [7]: Active
- inhibition [8]: Dde
- IC50 (MDA-MB-231): 3.03 µM
- IC50 [9]: 0.0156 µM
- inhibition [10]: Active
- Ratio IC50 [11]: > 100
- IC50 (HCT-116): 3.69 µM
- Ratio IC50 [12]: > 100
- IC50 (NCI-H1299): 4.78 µM
- IC50 [13]: 0.261 µM
- Ratio IC50 [14]: 8
- IC50 (Daudi): 2.07 µM
- IC50 [15]: 0.216 µM
- IC50 [16]: 8.88 µM
- IC50 (Jurkat): 2.28 µM
- IC50 (OCI-Ly3): 1.53 µM
- IC50 [17]: 1.13 µM

SMILES: C=CC(=O)Nc1cccc(Cn2c(=O)ccc3cnc(Nc4cnn(C)c4)nc32)c1
- IC50 [1]: 0.0018 µM
- IC50 (U-937 [2]): 0.22 µM

SMILES: C=CC(=O)Nc1cccc(Cn2c(=O)cc(C3CC3)c3cnc(Nc4ccc(N5CCN(C)CC5)cc4OC)nc32)c1
- IC50 [1]: 1.45 µM

SMILES: C=CC(=O)Nc1cccc(Cn2c(=O)ccc3cnc(Nc4ccc(N5CCN(C(C)=O)CC5)cc4OC)nc32)c1
- IC50 [1]: 0.0033 µM
- IC50 (U-937 [2]): 0.54 µM

SMILES: C=CC(=O)Nc1cccc(Cn2c(=O)ccc3cnc(Nc4cnn(C5CCN(C)CC5)c4)nc32)c1
- IC50 [1]: 0.002 µM
- IC50 (U-937 [2]): 0.07 µM

SMILES: C=CC(=O)Nc1cccc(Cn2c(=O)ccc3cnc(Nc4cnn(CCO)c4)nc32)c1
- IC50 [1]: 0.0017 µM
- IC50 (U-937 [2]): 0.47 µM

SMILES: C=CC(=O)Nc1cccc(Cn2c(=O)ccc3cnc(Nc4ccccc4OC)nc32)c1
- IC50 [1]: 0.003 µM
- IC50 (U-937 [2]): 2.02 µM

Results, then the compound that gave them:

- IC50 [1]: 0.0721 µM
SMILES: C=CC(=O)Nc1ccc(Cn2c(=O)ccc3cnc(Nc4ccccc4OC)nc32)cc1

- IC50 [1]: > 10 µM
SMILES: C=CC(=O)Nc1cccc(Cn2c(=O)cc(CCC)c3cnc(Nc4ccc(N5CCN(C)CC5)cc4OC)nc32)c1

- IC50 [1]: 0.02 µM
SMILES: C=CC(=O)Nc1cccc(Cn2c(=O)cc(CC)c3cnc(Nc4ccc(N5CCN(C)CC5)cc4OC)nc32)c1

- IC50 [1]: 4.8 µM
SMILES: C/C=C/C(=O)Nc1cccc(Cn2c(=O)ccc3cnc(Nc4ccccc4OC)nc32)c1

- IC50 [1]: 0.0033 µM
- IC50 (U-937 [2]): 0.43 µM
SMILES: C=CC(=O)Nc1cccc(Cn2c(=O)ccc3cnc(Nc4cnn(CCOC)c4)nc32)c1

- IC50 [1]: 0.0031 µM
- IC50 (U-937 [2]): 0.52 µM
SMILES: C=CC(=O)Nc1cccc(Cn2c(=O)ccc3cnc(Nc4ccc(N(C)CCN(C)C)cc4OC)nc32)c1

- IC50 [1]: 0.0041 µM
- IC50 (U-937 [2]): 0.52 µM
SMILES: C=CC(=O)Nc1cccc(Cn2c(=O)ccc3cnc(Nc4ccc(C5CCN(C)CC5)cc4OC)nc32)c1

- IC50 [18]: 0.0313 µM
SMILES: C=CC(=O)Nc1cccc(-n2c(=O)cc(C)c3cnc(Nc4ccc(N5CCN(C)CC5)cc4OC)nc32)c1

- IC50 [1]: > 10 µM
SMILES: C=CC(=O)Nc1ccccc1Cn1c(=O)ccc2cnc(Nc3ccccc3OC)nc21

- IC50 [1]: 0.0016 µM
- IC50 (U-937 [2]): 0.47 µM
SMILES: C=CC(=O)Nc1cccc(Cn2c(=O)ccc3cnc(Nc4ccc(N5CCN(C)CC5)cc4OC)nc32)c1
